Measurements reported in PMC9492542, “Brain-restricted mTOR inhibition with binary pharmacology” (Nature, 2022).
Read-outs that look alike come from different tables or passages of the source.

Key:
476 purified kinases [1] = target: 476 purified kinases (Homo sapiens, UniProt Q99759)
476 purified kinases [2] = target: 476 purified kinases (Homo sapiens, UniProt P35916); conditions: ZLYTE
476 purified kinases [3] = target: 476 purified kinases (Homo sapiens, UniProt Q00526)
476 purified kinases [4] = target: 476 purified kinases (Homo sapiens, UniProt P48426)
476 purified kinases [5] = target: 476 purified kinases (Homo sapiens, UniProt O00311)
476 purified kinases [6] = target: 476 purified kinases (Homo sapiens, UniProt Q9Y3S1)
476 purified kinases [7] = target: 476 purified kinases (Homo sapiens, UniProt P43405); conditions: ZLYTE
476 purified kinases [8] = target: 476 purified kinases (Homo sapiens, UniProt P48729); conditions: ZLYTE
476 purified kinases [9] = target: 476 purified kinases (Homo sapiens, UniProt Q86UX6)
476 purified kinases [10] = target: 476 purified kinases (Homo sapiens, UniProt O00141); conditions: ZLYTE
476 purified kinases [11] = target: 476 purified kinases (Homo sapiens, UniProt Q7L7X3)
476 purified kinases [12] = target: 476 purified kinases (Homo sapiens, UniProt Q92630)
476 purified kinases [13] = target: 476 purified kinases (Homo sapiens, UniProt Q00537); conditions: ZLYTE
476 purified kinases [14] = target: 476 purified kinases (Homo sapiens, UniProt Q99558)
476 purified kinases [15] = target: 476 purified kinases (Homo sapiens, UniProt Q9UIK4); conditions: 10 nM compound + 10 µM FKBP12
476 purified kinases [16] = target: 476 purified kinases (Homo sapiens, UniProt P57058)
476 purified kinases [17] = target: 476 purified kinases (Homo sapiens, UniProt Q8IYT8)
476 purified kinases [18] = target: 476 purified kinases (Homo sapiens, UniProt Q86V86); conditions: ZLYTE
476 purified kinases [19] = target: 476 purified kinases (Homo sapiens, UniProt Q13873)
476 purified kinases [20] = target: 476 purified kinases (Homo sapiens, UniProt Q9Y6E0); conditions: ZLYTE
476 purified kinases [21] = target: 476 purified kinases (Homo sapiens, UniProt P52564, S207E/T211E)
476 purified kinases [22] = target: 476 purified kinases (Homo sapiens, UniProt Q9H3Y6); conditions: ZLYTE
476 purified kinases [23] = target: 476 purified kinases (Homo sapiens, UniProt Q00534); conditions: Adapta
476 purified kinases [24] = target: 476 purified kinases (Homo sapiens, UniProt Q15835)
476 purified kinases [25] = target: 476 purified kinases (Homo sapiens, UniProt Q99683)
476 purified kinases [26] = target: 476 purified kinases (Homo sapiens, UniProt P14616); conditions: ZLYTE
476 purified kinases [27] = target: 476 purified kinases (Homo sapiens, UniProt P49761); conditions: ZLYTE
476 purified kinases [28] = target: 476 purified kinases (Homo sapiens, UniProt Q09013)
476 purified kinases [29] = target: 476 purified kinases (Homo sapiens, UniProt O75747)
476 purified kinases [30] = target: 476 purified kinases (Homo sapiens, UniProt Q96BR1); conditions: ZLYTE
476 purified kinases [31] = target: 476 purified kinases (Homo sapiens, UniProt Q86YV6)
476 purified kinases [32] = target: 476 purified kinases (Homo sapiens, UniProt Q13470); conditions: ZLYTE
476 purified kinases [33] = target: 476 purified kinases (Homo sapiens, UniProt P24723); conditions: ZLYTE
476 purified kinases [34] = target: 476 purified kinases (Homo sapiens, UniProt P19525)
476 purified kinases [35] = target: 476 purified kinases (Homo sapiens, UniProt P25098); conditions: ZLYTE

Chain of 476 purified kinases (Homo sapiens, UniProt O00311) (O00311 whole entry): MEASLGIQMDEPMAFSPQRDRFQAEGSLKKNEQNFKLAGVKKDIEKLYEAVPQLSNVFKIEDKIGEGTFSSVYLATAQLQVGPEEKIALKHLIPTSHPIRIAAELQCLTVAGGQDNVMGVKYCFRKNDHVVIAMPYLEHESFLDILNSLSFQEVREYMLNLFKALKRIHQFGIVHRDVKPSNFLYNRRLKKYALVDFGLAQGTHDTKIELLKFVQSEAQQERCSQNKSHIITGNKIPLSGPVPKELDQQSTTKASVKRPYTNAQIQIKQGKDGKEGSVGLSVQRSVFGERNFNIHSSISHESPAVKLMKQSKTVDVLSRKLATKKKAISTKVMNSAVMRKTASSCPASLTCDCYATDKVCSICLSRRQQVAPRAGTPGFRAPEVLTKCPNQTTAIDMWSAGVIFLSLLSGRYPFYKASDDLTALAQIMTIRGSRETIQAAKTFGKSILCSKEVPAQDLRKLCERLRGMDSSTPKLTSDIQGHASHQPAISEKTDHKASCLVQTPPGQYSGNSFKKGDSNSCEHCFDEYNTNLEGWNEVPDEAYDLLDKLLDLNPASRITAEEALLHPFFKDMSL
Chain of 476 purified kinases (Homo sapiens, UniProt P14616) (P14616 27-1297): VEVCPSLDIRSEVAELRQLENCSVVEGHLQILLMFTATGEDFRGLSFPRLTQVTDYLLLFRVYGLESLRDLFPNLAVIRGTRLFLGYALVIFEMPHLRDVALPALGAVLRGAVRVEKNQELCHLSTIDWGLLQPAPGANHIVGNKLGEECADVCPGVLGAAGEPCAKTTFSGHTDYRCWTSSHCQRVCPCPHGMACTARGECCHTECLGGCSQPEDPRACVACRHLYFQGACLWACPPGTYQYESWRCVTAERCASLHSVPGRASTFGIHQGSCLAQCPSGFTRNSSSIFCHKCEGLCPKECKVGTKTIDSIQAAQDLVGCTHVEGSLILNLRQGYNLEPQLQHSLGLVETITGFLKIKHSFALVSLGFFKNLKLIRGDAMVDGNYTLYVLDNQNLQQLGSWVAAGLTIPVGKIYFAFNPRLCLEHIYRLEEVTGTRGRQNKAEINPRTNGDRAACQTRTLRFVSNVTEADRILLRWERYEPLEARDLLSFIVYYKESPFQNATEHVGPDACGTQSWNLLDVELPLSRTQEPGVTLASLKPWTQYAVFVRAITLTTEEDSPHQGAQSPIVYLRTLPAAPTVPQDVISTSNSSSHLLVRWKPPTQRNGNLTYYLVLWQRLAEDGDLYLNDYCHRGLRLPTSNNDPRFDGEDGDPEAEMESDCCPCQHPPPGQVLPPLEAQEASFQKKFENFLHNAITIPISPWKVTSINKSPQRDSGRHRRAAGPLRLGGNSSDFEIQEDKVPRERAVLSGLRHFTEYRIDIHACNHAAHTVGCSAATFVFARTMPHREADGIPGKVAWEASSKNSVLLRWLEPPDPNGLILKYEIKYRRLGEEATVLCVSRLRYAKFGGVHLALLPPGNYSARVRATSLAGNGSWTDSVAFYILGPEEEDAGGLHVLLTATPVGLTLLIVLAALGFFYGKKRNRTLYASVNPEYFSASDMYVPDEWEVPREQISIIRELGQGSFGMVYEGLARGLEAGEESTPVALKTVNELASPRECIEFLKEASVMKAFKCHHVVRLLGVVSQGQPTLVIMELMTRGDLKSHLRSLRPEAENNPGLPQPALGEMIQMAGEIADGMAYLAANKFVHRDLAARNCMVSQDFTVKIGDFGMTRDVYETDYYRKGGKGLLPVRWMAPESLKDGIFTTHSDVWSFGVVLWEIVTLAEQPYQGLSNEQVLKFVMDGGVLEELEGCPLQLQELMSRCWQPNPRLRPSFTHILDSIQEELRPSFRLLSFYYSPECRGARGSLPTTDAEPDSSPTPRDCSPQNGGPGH
Chain of 476 purified kinases (Homo sapiens, UniProt Q92630) (Q92630 whole entry): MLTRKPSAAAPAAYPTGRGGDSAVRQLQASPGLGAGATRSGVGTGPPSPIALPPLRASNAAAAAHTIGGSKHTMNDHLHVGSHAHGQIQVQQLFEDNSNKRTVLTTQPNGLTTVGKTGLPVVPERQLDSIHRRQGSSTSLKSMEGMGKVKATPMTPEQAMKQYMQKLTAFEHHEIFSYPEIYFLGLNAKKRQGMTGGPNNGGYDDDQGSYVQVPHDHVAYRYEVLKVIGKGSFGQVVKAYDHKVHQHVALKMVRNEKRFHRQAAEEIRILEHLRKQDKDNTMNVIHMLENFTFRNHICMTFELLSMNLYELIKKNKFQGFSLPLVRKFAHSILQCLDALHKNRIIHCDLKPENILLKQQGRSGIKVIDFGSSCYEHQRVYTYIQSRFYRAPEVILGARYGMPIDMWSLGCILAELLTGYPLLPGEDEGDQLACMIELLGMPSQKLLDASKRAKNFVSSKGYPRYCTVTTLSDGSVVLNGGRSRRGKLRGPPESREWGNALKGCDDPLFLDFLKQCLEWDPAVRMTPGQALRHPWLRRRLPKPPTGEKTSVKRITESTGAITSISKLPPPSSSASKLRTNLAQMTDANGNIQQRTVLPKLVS
Chain of 476 purified kinases (Homo sapiens, UniProt Q7L7X3) (Q7L7X3 whole entry): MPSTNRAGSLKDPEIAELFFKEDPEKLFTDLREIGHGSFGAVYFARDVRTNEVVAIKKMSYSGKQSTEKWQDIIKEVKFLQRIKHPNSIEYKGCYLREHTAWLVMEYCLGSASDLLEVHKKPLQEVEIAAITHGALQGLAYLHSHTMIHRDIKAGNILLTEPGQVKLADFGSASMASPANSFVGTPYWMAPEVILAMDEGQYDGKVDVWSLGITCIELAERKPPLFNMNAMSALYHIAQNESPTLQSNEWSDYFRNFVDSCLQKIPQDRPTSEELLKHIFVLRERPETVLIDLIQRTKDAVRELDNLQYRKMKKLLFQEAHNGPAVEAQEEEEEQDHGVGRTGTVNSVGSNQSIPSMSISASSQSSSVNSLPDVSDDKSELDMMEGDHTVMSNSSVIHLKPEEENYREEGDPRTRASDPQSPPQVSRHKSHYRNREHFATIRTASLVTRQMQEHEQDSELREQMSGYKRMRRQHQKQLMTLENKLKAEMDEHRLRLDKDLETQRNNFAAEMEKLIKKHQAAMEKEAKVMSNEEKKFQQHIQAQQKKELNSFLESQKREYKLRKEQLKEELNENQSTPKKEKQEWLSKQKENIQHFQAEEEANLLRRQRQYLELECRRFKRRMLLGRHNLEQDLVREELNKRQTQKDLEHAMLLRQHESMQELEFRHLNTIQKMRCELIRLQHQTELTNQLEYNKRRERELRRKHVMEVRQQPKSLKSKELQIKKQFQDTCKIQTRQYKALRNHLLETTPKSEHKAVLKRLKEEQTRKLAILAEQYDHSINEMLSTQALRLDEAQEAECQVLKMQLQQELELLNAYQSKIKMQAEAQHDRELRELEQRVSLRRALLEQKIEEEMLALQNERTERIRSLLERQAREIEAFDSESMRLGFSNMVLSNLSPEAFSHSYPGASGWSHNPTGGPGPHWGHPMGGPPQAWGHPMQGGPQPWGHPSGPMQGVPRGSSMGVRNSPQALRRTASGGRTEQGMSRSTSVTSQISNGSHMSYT
Chain of 476 purified kinases (Homo sapiens, UniProt Q86UX6) (Q86UX6 whole entry): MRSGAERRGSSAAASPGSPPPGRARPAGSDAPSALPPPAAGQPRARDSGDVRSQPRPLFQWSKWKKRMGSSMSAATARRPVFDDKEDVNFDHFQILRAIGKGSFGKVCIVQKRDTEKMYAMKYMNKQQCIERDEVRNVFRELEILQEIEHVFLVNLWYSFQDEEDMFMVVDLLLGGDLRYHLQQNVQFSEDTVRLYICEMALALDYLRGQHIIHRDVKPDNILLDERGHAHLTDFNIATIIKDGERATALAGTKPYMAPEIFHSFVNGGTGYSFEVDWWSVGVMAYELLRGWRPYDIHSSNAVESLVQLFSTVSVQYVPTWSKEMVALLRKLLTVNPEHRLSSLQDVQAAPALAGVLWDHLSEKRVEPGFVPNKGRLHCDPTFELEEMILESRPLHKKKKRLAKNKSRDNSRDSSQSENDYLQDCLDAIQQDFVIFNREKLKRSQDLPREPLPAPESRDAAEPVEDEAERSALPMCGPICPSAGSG
Chain of 476 purified kinases (Homo sapiens, UniProt P52564, S207E/T211E) (P52564 whole entry S207E/T211E): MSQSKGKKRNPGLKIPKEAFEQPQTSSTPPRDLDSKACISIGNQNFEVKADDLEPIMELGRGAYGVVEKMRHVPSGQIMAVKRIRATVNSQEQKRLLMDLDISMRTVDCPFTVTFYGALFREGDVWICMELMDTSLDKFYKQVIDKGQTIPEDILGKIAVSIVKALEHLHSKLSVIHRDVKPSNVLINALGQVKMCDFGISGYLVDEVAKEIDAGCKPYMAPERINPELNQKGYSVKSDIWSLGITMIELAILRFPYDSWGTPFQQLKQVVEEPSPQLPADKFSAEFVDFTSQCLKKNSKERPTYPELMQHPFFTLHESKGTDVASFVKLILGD
Chain of 476 purified kinases (Homo sapiens, UniProt P48426) (P48426 whole entry): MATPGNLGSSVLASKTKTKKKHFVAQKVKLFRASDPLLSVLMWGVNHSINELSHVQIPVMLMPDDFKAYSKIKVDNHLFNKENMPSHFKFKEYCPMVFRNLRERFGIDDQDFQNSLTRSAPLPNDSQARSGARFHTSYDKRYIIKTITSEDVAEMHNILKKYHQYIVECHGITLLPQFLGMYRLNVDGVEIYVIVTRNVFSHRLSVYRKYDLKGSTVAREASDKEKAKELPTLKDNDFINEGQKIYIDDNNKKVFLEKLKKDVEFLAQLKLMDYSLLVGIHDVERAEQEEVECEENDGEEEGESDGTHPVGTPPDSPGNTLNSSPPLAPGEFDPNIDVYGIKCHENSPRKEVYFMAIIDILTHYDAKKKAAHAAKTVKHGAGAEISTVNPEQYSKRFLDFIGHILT
Chain of 476 purified kinases (Homo sapiens, UniProt P48729) (P48729 whole entry): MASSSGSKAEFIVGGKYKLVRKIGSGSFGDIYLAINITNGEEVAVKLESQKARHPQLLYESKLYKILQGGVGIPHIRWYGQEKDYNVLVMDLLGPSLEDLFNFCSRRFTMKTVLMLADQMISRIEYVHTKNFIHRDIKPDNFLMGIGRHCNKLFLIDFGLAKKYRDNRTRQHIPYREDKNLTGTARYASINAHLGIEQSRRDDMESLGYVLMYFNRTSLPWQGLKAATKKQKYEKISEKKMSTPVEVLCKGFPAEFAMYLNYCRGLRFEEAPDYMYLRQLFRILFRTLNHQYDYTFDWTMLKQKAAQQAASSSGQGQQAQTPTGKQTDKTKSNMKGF

Cc1nc(Nc2ncc(C(=O)Nc3c(C)cccc3Cl)s2)cc(N2CCN(CCO)CC2)n1 [Dasatinib]
MAP3K3 (MEKK3) (LanthaScreen Binding) (476 purified kinases [1]; 10 nM compound): 1 | MAP3K3 (MEKK3) (LanthaScreen Binding) (476 purified kinases [1]; 10 nM compound + 10 µM FKBP12): 3 | FLT4 (VEGFR3) (kinase profiling) (476 purified kinases [2]; 10 nM): 7 | FLT4 (VEGFR3) (kinase profiling) (476 purified kinases [2]; 10 nM + 10 µM FKBP12): 0 | CDK3/cyclin E1 (LanthaScreen Binding) (476 purified kinases [3]; 10 nM compound): 0 | CDK3/cyclin E1 (LanthaScreen Binding) (476 purified kinases [3]; 10 nM compound + 10 µM FKBP12): -21 | PIP4K2A (Adapta) (476 purified kinases [4]; 10 nM compound): -15 | PIP4K2A (Adapta) (476 purified kinases [4]; 10 nM compound + 10 µM FKBP12): 4 | CDC7/DBF4 (LanthaScreen Binding) (476 purified kinases [5]; 10 nM compound): 7 | CDC7/DBF4 (LanthaScreen Binding) (476 purified kinases [5]; 10 nM compound + 10 µM FKBP12): 16 | WNK2 (LanthaScreen Binding) (476 purified kinases [6]; 10 nM compound): 0 | WNK2 (LanthaScreen Binding) (476 purified kinases [6]; 10 nM compound + 10 µM FKBP12): -1 | SYK (kinase profiling) (476 purified kinases [7]; 10 nM): 6 | SYK (kinase profiling) (476 purified kinases [7]; 10 nM + 10 µM FKBP12): 8 | CSNK1A1 (CK1 alpha 1) (kinase profiling) (476 purified kinases [8]; 10 nM): -1 | CSNK1A1 (CK1 alpha 1) (kinase profiling) (476 purified kinases [8]; 10 nM + 10 µM FKBP12): 8 | STK32C (YANK3) (LanthaScreen Binding) (476 purified kinases [9]; 10 nM compound): -1 | STK32C (YANK3) (LanthaScreen Binding) (476 purified kinases [9]; 10 nM compound + 10 µM FKBP12): -2 | SGK (SGK1) (kinase profiling) (476 purified kinases [10]; 10 nM): 2 | SGK (SGK1) (kinase profiling) (476 purified kinases [10]; 10 nM + 10 µM FKBP12): 2 | TAOK1 (LanthaScreen Binding) (476 purified kinases [11]; 10 nM compound): -5 | TAOK1 (LanthaScreen Binding) (476 purified kinases [11]; 10 nM compound + 10 µM FKBP12): 1 | DYRK2 (LanthaScreen Binding) (476 purified kinases [12]; 10 nM compound): -6 | DYRK2 (LanthaScreen Binding) (476 purified kinases [12]; 10 nM compound + 10 µM FKBP12): -4 | CDK17/cyclin Y (kinase profiling) (476 purified kinases [13]; 10 nM): 7 | CDK17/cyclin Y (kinase profiling) (476 purified kinases [13]; 10 nM + 10 µM FKBP12): 8 | MAP3K14 (NIK) (LanthaScreen Binding) (476 purified kinases [14]; 10 nM compound): -2 | MAP3K14 (NIK) (LanthaScreen Binding) (476 purified kinases [14]; 10 nM compound + 10 µM FKBP12): 2 | DAPK2 (LanthaScreen Binding) (476 purified kinases [15]): -11 | HUNK (LanthaScreen Binding) (476 purified kinases [16]; 10 nM compound): 0 | HUNK (LanthaScreen Binding) (476 purified kinases [16]; 10 nM compound + 10 µM FKBP12): 5 | ULK2 (LanthaScreen Binding) (476 purified kinases [17]; 10 nM compound): -3 | ULK2 (LanthaScreen Binding) (476 purified kinases [17]; 10 nM compound + 10 µM FKBP12): -6 | PIM3 (kinase profiling) (476 purified kinases [18]; 10 nM): 4 | PIM3 (kinase profiling) (476 purified kinases [18]; 10 nM + 10 µM FKBP12): -6 | BMPR2 (LanthaScreen Binding) (476 purified kinases [19]; 10 nM compound): 0 | BMPR2 (LanthaScreen Binding) (476 purified kinases [19]; 10 nM compound + 10 µM FKBP12): 3 | STK24 (MST3) (kinase profiling) (476 purified kinases [20]; 10 nM): 13 | STK24 (MST3) (kinase profiling) (476 purified kinases [20]; 10 nM + 10 µM FKBP12): 20 | MAP2K6 (MKK6) S207E T211E (LanthaScreen Binding) (476 purified kinases [21]; 10 nM compound): -2 | MAP2K6 (MKK6) S207E T211E (LanthaScreen Binding) (476 purified kinases [21]; 10 nM compound + 10 µM FKBP12): 2 | SRMS (Srm) (kinase profiling) (476 purified kinases [22]; 10 nM): 87 | SRMS (Srm) (kinase profiling) (476 purified kinases [22]; 10 nM + 10 µM FKBP12): 86 | CDK6/cyclin D1 (kinase profiling) (476 purified kinases [23]; 10 nM): 11 | CDK6/cyclin D1 (kinase profiling) (476 purified kinases [23]; 10 nM + 10 µM FKBP12): -10 | GRK1 (LanthaScreen Binding) (476 purified kinases [24]; 10 nM compound): 2 | GRK1 (LanthaScreen Binding) (476 purified kinases [24]; 10 nM compound + 10 µM FKBP12): 7 | MAP3K5 (ASK1) (LanthaScreen Binding) (476 purified kinases [25]; 10 nM compound): 0 | MAP3K5 (ASK1) (LanthaScreen Binding) (476 purified kinases [25]; 10 nM compound + 10 µM FKBP12): -1 | INSRR (IRR) (kinase profiling) (476 purified kinases [26]; 10 nM): 4 | INSRR (IRR) (kinase profiling) (476 purified kinases [26]; 10 nM + 10 µM FKBP12): 21 | CLK3 (kinase profiling) (476 purified kinases [27]; 10 nM): 6 | CLK3 (kinase profiling) (476 purified kinases [27]; 10 nM + 10 µM FKBP12): 11 | DMPK (LanthaScreen Binding) (476 purified kinases [28]; 10 nM compound): 1 | DMPK (LanthaScreen Binding) (476 purified kinases [28]; 10 nM compound + 10 µM FKBP12): 4 | PIK3C2G (PI3K-C2 gamma) (Adapta) (476 purified kinases [29]; 10 nM compound): 3 | PIK3C2G (PI3K-C2 gamma) (Adapta) (476 purified kinases [29]; 10 nM compound + 10 µM FKBP12): -4 | SGKL (SGK3) (kinase profiling) (476 purified kinases [30]; 10 nM): 7 | SGKL (SGK3) (kinase profiling) (476 purified kinases [30]; 10 nM + 10 µM FKBP12): 6 | MYLK4 (LanthaScreen Binding) (476 purified kinases [31]; 10 nM compound): 3 | MYLK4 (LanthaScreen Binding) (476 purified kinases [31]; 10 nM compound + 10 µM FKBP12): 11 | TNK1 (kinase profiling) (476 purified kinases [32]; 10 nM): 0 | TNK1 (kinase profiling) (476 purified kinases [32]; 10 nM + 10 µM FKBP12): -2 | PRKCH (PKC eta) (kinase profiling) (476 purified kinases [33]; 10 nM): 20 | PRKCH (PKC eta) (kinase profiling) (476 purified kinases [33]; 10 nM + 10 µM FKBP12): 5 | EIF2AK2 (PKR) (LanthaScreen Binding) (476 purified kinases [34]; 10 nM compound): -5 | EIF2AK2 (PKR) (LanthaScreen Binding) (476 purified kinases [34]; 10 nM compound + 10 µM FKBP12): -10 | ADRBK1 (GRK2) (kinase profiling) (476 purified kinases [35]; 10 nM): 2 | ADRBK1 (GRK2) (kinase profiling) (476 purified kinases [35]; 10 nM + 10 µM FKBP12): 3
